Experimental data published in PubChem BioAssay AID623909 (Vanderbilt High Throughput Screening Facility, 2012).
The source made the active and inactive calls. How the calls were made is not given here.

molecular target: G protein-activated inward rectifier potassium channel 2 (Homo sapiens) + G protein-activated inward rectifier potassium channel 1 (Homo sapiens) (UniProt P48051+P48549); test: activation of human GIRK potassium channels – cell-based, thallium flux, HEK-293, GIRK1/2, dose response (AID 623909); conditions: HEK-293 hGIRK1/2, thallium flux FluoZin-2 fluorescence
Sequence (P48051 whole entry, looked up): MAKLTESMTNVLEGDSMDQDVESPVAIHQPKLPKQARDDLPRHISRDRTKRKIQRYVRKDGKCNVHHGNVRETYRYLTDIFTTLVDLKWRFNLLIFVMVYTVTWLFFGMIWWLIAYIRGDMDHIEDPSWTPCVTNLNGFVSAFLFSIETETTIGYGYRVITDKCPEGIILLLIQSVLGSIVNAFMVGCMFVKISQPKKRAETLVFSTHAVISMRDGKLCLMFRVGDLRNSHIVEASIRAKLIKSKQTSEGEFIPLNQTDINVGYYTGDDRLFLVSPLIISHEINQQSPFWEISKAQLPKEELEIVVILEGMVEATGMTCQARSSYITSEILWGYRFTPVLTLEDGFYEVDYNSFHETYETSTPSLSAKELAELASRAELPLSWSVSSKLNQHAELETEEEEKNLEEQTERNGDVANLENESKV
Sequence (P48549 whole entry, looked up): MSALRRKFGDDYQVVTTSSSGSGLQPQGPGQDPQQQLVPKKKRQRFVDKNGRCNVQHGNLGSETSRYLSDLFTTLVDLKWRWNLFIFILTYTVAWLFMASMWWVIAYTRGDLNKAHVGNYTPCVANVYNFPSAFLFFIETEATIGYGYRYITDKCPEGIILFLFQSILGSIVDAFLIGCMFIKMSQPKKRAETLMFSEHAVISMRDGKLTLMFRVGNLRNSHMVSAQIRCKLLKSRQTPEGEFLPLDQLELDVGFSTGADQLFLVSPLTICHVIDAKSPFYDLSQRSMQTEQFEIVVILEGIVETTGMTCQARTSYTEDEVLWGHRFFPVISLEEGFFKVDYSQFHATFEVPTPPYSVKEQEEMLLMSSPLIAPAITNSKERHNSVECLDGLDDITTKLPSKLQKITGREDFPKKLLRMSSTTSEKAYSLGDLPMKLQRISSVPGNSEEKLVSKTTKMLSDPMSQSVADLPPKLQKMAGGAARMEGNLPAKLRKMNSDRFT

SMILES | EC50
Cc1ccc(CC(=O)N2CCN(c3cccc(C(F)(F)F)c3)CC2)cc1 | 5.18 µM
CCOc1ccc(OCCSc2nc3ccccc3[nH]2)cc1 | 1.67 µM
COc1ccc(C)cc1NC(=O)Nc1ccccc1 | 5.96 µM
Cc1cc(NC(=O)Nc2ccccc2)n(-c2ccccc2)n1 | 3.76 µM
COc1cccc(NC(=O)CC2COc3ccccc3O2)c1 (configuration not stated) | 30 µM
Cc1ccccc1OCC(=O)N/N=C/c1cccn1C | 30 µM
CC(=O)c1sc(NC(=O)c2cc(-c3ccccc3)nn2-c2ccccc2)nc1C | 0.884 µM
O=C(Nc1ccccc1)Nc1nccs1 | 30 µM
COc1ccc(C(=O)NC(=S)NC(C)C)cc1Br | 2.25 µM
COc1cccc(NC(=O)Nc2cccs2)c1 | 7.33 µM
CC1CC(C)CN(C(=S)Nc2ccc(SC(F)F)cc2)C1 (configuration not stated) | 10.6 µM
O=C(Nc1cccc(Cl)c1)Nc1nccs1 | 1.95 µM
Cc1ccc(NC(=O)CN2c3cccc4cccc(c34)S2(=O)=O)cc1S(=O)(=O)N1CCOCC1 | 2.23 µM
COc1cccc(NC(=O)Cn2cc(C#N)c3ccccc32)c1 | 1.65 µM
CCCN(CC1CC1)C(=S)Nc1ccc(Oc2ccccc2)cc1 | 3.54 µM
Cc1ccc(NC(=O)Cc2ccccc2Cl)cc1S(=O)(=O)N(C)C | 2.62 µM
COc1ccc(Nc2nnc(Cc3ccccc3)c(=O)[nH]2)c(OC)c1 | 30 µM
Cc1ccc(NC(=O)COC(=O)/C=C/c2ccco2)cc1S(=O)(=O)N(C)C | 30 µM
COc1ccc(C2CC(c3ccc(Cl)c(Cl)c3)Nc3nc(N)nn32)cc1 (configuration not stated) | 2.41 µM
Cc1ccc(NC(=O)COC(=O)CCC(=O)c2ccc(Cl)cc2)cc1S(=O)(=O)N(C)C | 30 µM
COC(=O)[C@H](Cc1ccccc1)NC(=O)NCCC1=CCCCC1 | 30 µM
CC(Sc1nnnn1C)C(=O)Nc1ccc(Oc2ccccc2)cc1 (configuration not stated) | 30 µM

SMILES | EC50
C=C(C)C1CC=C(C)/C(=N/NC(=O)COc2cccc(C)c2)C1 (configuration not stated) | 8.94 µM
COc1c(Cl)cc(Cl)cc1CNCCNCC(C)O (configuration not stated) | 0.497 µM
O=C(NNC(=O)c1cccs1)Nc1cccc(Cl)c1 | 11.2 µM
COc1ccc(NC(=O)Nc2cc(C)ccc2OC)cc1 | 2.05 µM
CCOC(=O)c1ccc(NC(=O)Nc2ccc(OC)c(OC)c2)cc1 | 5.54 µM
Cc1cc(C)n(-c2ccc(C(=O)OCC(=O)Nc3ccc(Cl)c(S(=O)(=O)N(C)C)c3)cc2)n1 | 8.94 µM
CSc1ccccc1NC(=O)Nc1ccccc1 | 12.8 µM
Fc1ccc(CSc2nc3ccccc3[nH]2)c2ccccc12 | 3.6 µM
O=C(Nc1ccc(F)c(F)c1)NC1CCCCC1 | 8.55 µM
CCOC(=O)C1=C(CC)Nc2ccccc2N=C1NC(=O)Nc1ccc(Cl)c(Cl)c1 | 3.62 µM
CCCCc1ccc(NC(=S)Nc2ccc(Cl)c(S(=O)(=O)N(C)C)c2)cc1 | 4 µM
CCOCc1c(C(=O)OCC(=O)Nc2ccc(C)c(S(=O)(=O)N(C)C)c2)oc2ccccc12 | 30 µM
CCOC(=O)C(Cc1ccccc1)NC(=O)Cn1nnc(-c2ccccc2)n1 (configuration not stated) | 30 µM
CCOc1ccc(NC(=O)NC23CC4CC(CC(C4)C2)C3)cc1 | 1.48 µM
COc1ccc(C)cc1NC(=O)NCCC1=CCCCC1 | 3.94 µM
CSc1cccc(NC(=O)COc2ccccc2)c1 | 30 µM
CN(C)S(=O)(=O)c1cccc(NC(=O)Cc2ccc(Cl)cc2)c1 | 9.88 µM
O=C(Cc1ccccc1)N/N=C/c1cccn1-c1ccc([N+](=O)[O-])cc1 | 1.42 µM
CCCn1c(C)cc(/C=C(\C#N)C(=O)OCC(=O)Nc2cccc(OC)c2)c1C | 30 µM
CCCSc1nnc(Nc2ccccc2C)s1 | 30 µM
CC(/C=N/NC(=O)c1c(Br)cnn1C)=C\c1ccccc1 | 3.54 µM
O=C(Nc1ccc(Cl)cc1)Nc1nccs1 | 3.65 µM

SMILES | EC50
CN(C)S(=O)(=O)N(CC(=O)Nc1ccc2ccccc2c1)c1ccccc1 | 7.2 µM
CCSc1nnc(NC(=O)NC(CC)(C(F)(F)F)C(F)(F)F)s1 | 30 µM
O=C(Nc1ccc(Cl)cc1)NC1CCCCC1Cc1ccco1 (configuration not stated) | 4.14 µM
CCOC(=O)Cc1csc(NC(=O)Nc2ccccc2)n1 | 7.34 µM
S=C(Nc1cccc(Cl)c1)Nc1ccccc1Oc1ccccc1 | 8.09 µM
C/C(CC(=O)NCC(C)C)=N\NC(=O)COc1cc(C)c(Br)cc1Br | 16.8 µM
COc1ccc(NC(=O)Nc2ccccc2C(=O)N2CCCC2)cc1 | 30 µM
CC(C)=CCC(C)(C)CNC(=O)NC1CCCCC1 | 30 µM
CCOc1ccccc1Nc1nnc(Cc2ccccc2Cl)c(=O)[nH]1 | 0.67 µM
Cc1cccc(NC(=O)NC(C)CCc2ccccc2)c1 (configuration not stated) | 30 µM
Cc1ccc(-c2nnn(CC(=O)NC3CC4CCC3C4)n2)cc1 (configuration not stated) | 0.317 µM
O=C(/C=C/c1ccccc1)NC(NC(=S)Nc1cccc(Cl)c1)C(Cl)(Cl)Cl (configuration not stated) | 5.91 µM
CCCCc1ccc(NC(=S)Nc2cccnc2)cc1 | 8.96 µM
CC1CCCN(Cc2cccc(Oc3ccccc3)c2)C1 (configuration not stated) | 30 µM
CSc1cccc(NC(=O)CN(c2ccccc2)S(=O)(=O)N(C)C)c1 | 30 µM
CCc1ccc(CNCCNCC(C)O)cc1 (configuration not stated) | 2.36 µM
COc1ccc(Br)cc1CNC(=O)Nc1cccs1 | 1.75 µM
Cc1nn(CC(=O)Nc2ccc(Cl)c(S(=O)(=O)N(C)C)c2)c(C)c1[N+](=O)[O-] | 30 µM
NC(=O)SCC(=O)Nc1ccc(Cl)cc1 | 4.2 µM
COc1ccccc1Nc1ccc(Nc2ccccc2OC)nn1 | 3.41 µM
Cc1ccc(Cl)cc1NC(=S)NCc1cccn1C | 16.2 µM

same assay, conditions: HEK-293 hGIRK1/2, thallium flux FluoZin-2 fluorescence; at 90 µM (top of the series)

SMILES | activation, % of glutamate
CSc1ccccc1NC(=O)Nc1ccc(Cl)cc1 | inactive
CCOc1ccc(NC(=O)Nc2cccs2)cc1 | inactive
